From US20040105875A1, “Composition containing a secondary or tertiary carbonyl amine, method of use thereof, compounds” (L'OREAL, priority 2002, published 2004)

Tests used:
[1] = test system: calcium flux (release of Ca2+) in HDFa cells obtained from skin fibroblasts; test: Inhibition of calcium flux (IC50Ca2+) on cells obtained from skin fibroblasts HDFa; format: cell-based; conditions: 50% inhibitory concentration for the release of Ca2+
Excerpt: (§1) In order for a substance to be recognized as a calcium-channel inhibitor, it must be able to reduce the intracellular calcium concentration or reduce the binding of calcium to intracellular proteins such as, for example, calmodulin, as is described especially by Galizzi, J. P. et al., J. Biol. Chem. 1987, 262 p. 6947; by Y. Okamiya et al., Eur. J. Pharmacol. 1991, 205, p. 49; by J. A. Wagner et al., J. Neurosci. 1988, 8, p. 3354; by H. R. Lee et al., Life Sci. 1984, 35, p. 721; by Schoemaker H. and Lauger S. Eur. J. Pharmacol. 1985, 111, p. 273 or I. J. Reynolds et al., J. Pharmacol. Exp. Ther. 1986, 237, p. 731.
(§2) According to the protocol indicated in these documents, the Assignee determined the IC50Ca2+ of inhibition of calcium flux for compounds (Ia), (IIa) to (IId), (IIIa) and (IIIb), in comparison with verapamil. IC50Ca2+ represents the 50% inhibitory concentration for the release of Ca^2+.

[2] = test system: calcium flux (release of Ca2+) in SK-N-SH nerve cells; test: Inhibition of calcium flux (IC50Ca2+) on nerve cells SK-N-SH; format: cell-based; conditions: Homo sapiens, 50% inhibitory concentration for the release of Ca2+
Excerpt: as §1, §2

fibroblasts = test: Cytotoxicity check in the dermal equivalent test; format: cell-based, human
[3] = test system: normal human fibroblasts inserted into a fibrillar collagen gel (dermal equivalent); test: Contraction of dermal equivalents (fibroblasts in fibrillar collagen gel), dermo-decontracting effect; format: cell-based
Excerpt: This model thus makes it possible to evaluate the relaxing potential of compounds by measuring the delay in contraction of the treated dermal equivalents relative to the control dermal equivalents prepared under the same conditions. Verapamil is used as reference molecule.
Dermal fibroblasts are isolated from human skin explants and cultured in MEM medium+additives (10% foetal calf serum, 1% glutamine, 1% non-essential amino acids, 1% sodium pyruvate, 1% Fungizone and 1% penicillin/streptomycin). The collagen used is obtained from a commercial solution. It is extracted from rat tails and stored in acidic medium at +4° C. It is dialysed beforehand against successive baths of acetic acid of decreasing concentration.
The mixture is homogenized cautiously, so as to obtain a distribution of the cells in the collagen matrix that is as uniform as possible. It is then distributed in each well of a 12-well culture dish at a rate of 2 ml/well. The final cell concentration is 3×10^4 cells/dermal equivalent with a final collagen concentration of 1 mg/ml.
The culture dishes are incubated at 37° C./5% CO2 so as to obtain polymerization and gelation of the collagen. The dermal equivalents thus treated adhere to the dishes and the cells are subjected to mechanical stresses that potentiate their contractile properties. The cells thus cultured in 3D end up under conditions close to those of the dermis. After culturing for three days under these “attached” conditions, the dermal equivalents are detached from their support by gentle agitation. […]
To do this, a digital image is acquired for each treated or untreated dermal equivalent using a camera (CCD camera—Iris Sony DXC -107P) and on each of them, the small (D1) and large (D2) diameters of the dermal equivalent are measured by computer. The surface area is calculated according to the formula for calculating an ellipse: S=(D1×D2×π)/4. […] The percentage of contraction is calculated according to the formula below, in which Si represents the surface area of the dermal equivalent at Ti: […]

SMILES | IC50 [2] [µM] | IC50 [1] [µM] | also measured
COc1cc(CNCCC(=O)c2ccccc2)ccc1O [Compound (IIIa)] | 41 | 30 | –
CCCCCC(=O)CCN(CC)CCC(=O)c1ccccc1 [Compound (IIa)] | 29 | 41 | –
CCCCCCCNCCC(=O)c1ccccc1 [Compound (IIc)] | 36 | 46 | –
CN(CCC(=O)c1ccccc1)CCC(=O)c1ccccc1.Cl [Compound (Ia)] | 36 | – | cytotoxicity as cause of the decontracting effect (fibroblasts): did not result from any cytotoxicity; difference in the degree of contraction compared with control dermal equivalents ([3]; tested at 1 μm, after 4 days of contact with the fibroblasts): 25%
CCN(CCCc1ccccc1)CCCc1ccccc1 [alverine, reference compound] | 30 | – | activity in the dermal equivalent contraction test ([3]; tested under the same conditions): no activity
COc1ccc(CCN(C)CCCC(C#N)(c2ccc(OC)c(OC)c2)C(C)C)cc1OC (stereo not drawn) [verapamil] | – | – | difference in the degree of contraction compared with control dermal equivalents ([3]; tested at 10 μM, same conditions (4 days of contact)): 32%

The next lines start with results.

IC50 [2] [µM] | SMILES | IC50 [1] [µM] | also measured
14 | COc1ccc(CCN(C)CCC(=O)c2ccccc2)cc1OC [Compound (IIIb)] | 6 | –
26 | CCCCCCCN(C)CCC(=O)c1ccccc1 [Compound (IIb)] | 31 | –
3 | CCCCCC(O)(CCCCC)CCN(CC)CCC(=O)c1ccccc1 [Compound (IId), 3-[ethyl(3-hydroxy-3-pentyloctyl)amino]-1-phenylpropan-1-one] | 4 | –
